Reference: PubChem BioAssay AID330 (DTP/NCI, 2004)
Values joined by “and” are separate entries in the source; they are usually repeats but may differ in a detail not shown here. Equal values may be shown once. Toxic doses and inconclusive results are not listed. Rule for the calls: active = survival T/C of 150% or more; inactive = T/C below 125% in these data.

Test system: P388 leukemia ip, CD2F1 mice, survival T/C
Test: NCI In Vivo Anticancer Drug Screen. Data for tumor model P388 Leukemia (intraperitoneal) in CD2F1 (CDF1) mice
Details: endpoint: median survival time, higher = longer survival
Method in brief: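 Mice carrying the transplanted tumor received test compound or vehicle. Survival was recorded in each group, and the value is the treated-group measurement divided by that of the vehicle-treated control group.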

[1] = dose: 50.0 mg/kg/injection, schedule: Q01DX009 (ip), vehicle: saline with Tween-80
[2] = dose: 100.0 mg/kg/injection, schedule: Q01DX009 (ip), vehicle: saline with Tween-80
[3] = dose: 200.0 mg/kg/injection, schedule: Q01DX009 (ip), vehicle: saline with Tween-80
[4] = dose: 12.5 mg/kg/injection, schedule: Q01DX009 (ip), vehicle: Klucel (hydroxypropylcellulose) (HPC)
[5] = dose: 25.0 mg/kg/injection, schedule: Q01DX009 (ip), vehicle: Klucel (hydroxypropylcellulose) (HPC)
[6] = dose: 50.0 mg/kg/injection, schedule: Q01DX009 (ip), vehicle: Klucel (hydroxypropylcellulose) (HPC)
[7] = dose: 50.0 mg/kg/injection, schedule: Q01DX009 (ip), vehicle: saline
[8] = dose: 100.0 mg/kg/injection, schedule: Q01DX009 (ip), vehicle: saline
[9] = dose: 200.0 mg/kg/injection, schedule: Q01DX009 (ip), vehicle: saline
[10] = dose: 100.0 mg/kg/injection, schedule: Q04DX002 (ip), vehicle: saline with Tween-80
[11] = dose: 200.0 mg/kg/injection, schedule: Q04DX002 (ip), vehicle: saline with Tween-80
[12] = dose: 50.0 mg/kg/injection, schedule: Q01DX005 (ip), vehicle: saline with Tween-80
[13] = dose: 100.0 mg/kg/injection, schedule: Q01DX005 (ip), vehicle: saline with Tween-80
[14] = dose: 200.0 mg/kg/injection, schedule: Q01DX005 (ip), vehicle: saline with Tween-80
[15] = dose: 400.0 mg/kg/injection, schedule: Q01DX009 (ip), vehicle: saline with Tween-80
[16] = dose: 12.5 mg/kg/injection, schedule: Q01DX005 (ip), vehicle: Klucel (hydroxypropylcellulose) (HPC)
[17] = dose: 25.0 mg/kg/injection, schedule: Q01DX005 (ip), vehicle: Klucel (hydroxypropylcellulose) (HPC)
[18] = dose: 50.0 mg/kg/injection, schedule: Q01DX005 (ip), vehicle: Klucel (hydroxypropylcellulose) (HPC)
[19] = dose: 100.0 mg/kg/injection, schedule: Q01DX005 (ip), vehicle: Klucel (hydroxypropylcellulose) (HPC)
[20] = dose: 200.0 mg/kg/injection, schedule: Q01DX005 (ip), vehicle: Klucel (hydroxypropylcellulose) (HPC)

Measured: T/C

CCOC(=O)c1ccc(NC(CCC(C#N)(CCC(=NC(C)(C)C)Nc2ccc(C(=O)OCC)cc2)C(=O)OCC)=NC(C)(C)C)cc1 (configuration not stated)
inactive: [1] 95 % of control | [2] 95 % of control | [3] 95 % of control

O=C1CC2(CCCCC2)C(=O)N1c1cc([N+](=O)[O-])ccn1
inactive: [4] 100 % of control | [5] 101 % of control | [6] 100 % of control and 92 % of control

Cc1cn(C)c2c1-c1oncc1CC2
inactive: dose: 100.0 mg/kg/injection, schedule: Q04DX003 (ip), vehicle: Klucel (hydroxypropylcellulose) (HPC) 100 % of control | dose: 200.0 mg/kg/injection, schedule: Q04DX003 (ip), vehicle: Klucel (hydroxypropylcellulose) (HPC) 100 % of control | dose: 400.0 mg/kg/injection, schedule: Q04DX003 (ip), vehicle: Klucel (hydroxypropylcellulose) (HPC) 100 % of control

C=C1CC2(CCS(=O)(=O)c3ccccc32)OC1=O (configuration not stated)
inactive: dose: 12.5 mg/kg/injection, schedule: Q04DX002 (ip), vehicle: saline with Tween-80 105 % of control | dose: 25.0 mg/kg/injection, schedule: Q04DX002 (ip), vehicle: saline with Tween-80 109 % of control | dose: 50.0 mg/kg/injection, schedule: Q04DX002 (ip), vehicle: saline with Tween-80 116 % of control

O=c1c2ccccc2c(=O)n2n1CCC2O (configuration not stated)
inactive: [7] 108 % of control | [8] 101 % of control | [9] 101 % of control

COc1ccc(C(C#N)C(=O)CCC(=O)C(C#N)c2ccc(OC)c(OC)c2)cc1OC (configuration not stated)
inactive: [10] 106 % of control | [11] 98 % of control

O=S(=O)(c1ccccc1)N1CCN(S(=O)(=O)c2ccccc2)COC1
inactive: [12] 103 % of control | [13] 101 % of control | [14] 102 % of control

CC(=O)c1cc[n+](Cc2cc3ccccc3nc2Br)cc1
inactive: dose: 12.5 mg/kg/injection, schedule: Q04DX002 (ip), vehicle: saline 101 % of control | dose: 25.0 mg/kg/injection, schedule: Q04DX002 (ip), vehicle: saline 102 % of control | dose: 50.0 mg/kg/injection, schedule: Q04DX002 (ip), vehicle: saline 101 % of control

CCC(=O)Nc1ccc(Br)cc1
inactive: [1] 102 % of control | [2] 94 % of control | [3] 96 % of control | [15] 96 % of control

Cc1ccsc1S(N)(=O)=O
inactive: [16] 95 % of control | [17] 98 % of control | [18] 106 % of control and 107 % of control | [19] 113 % of control | [20] 113 % of control

NC(=O)c1cn(CCO)nc1[N+](=O)[O-]
inactive: [7] 100 % of control | [8] 100 % of control | [9] 119 % of control

Cc1ccc(-n2nc(C)cc2C)nn1
inactive: [7] 99 % of control | [8] 101 % of control

COc1cc(N=Nc2cc(CN(C)C)cc3ncccc23)c(OC)cc1N=Nc1ccc([N+](=O)[O-])cc1
inactive: dose: 12.5 mg/kg/injection, schedule: Q01DX005 (ip), vehicle: saline with Tween-80 98 % of control | [4] 93 % of control | dose: 25.0 mg/kg/injection, schedule: Q01DX005 (ip), vehicle: saline with Tween-80 109 % of control | [5] 91 % of control | dose: 38.25 mg/kg/injection, schedule: Q01DX009 (ip), vehicle: Klucel (hydroxypropylcellulose) (HPC) 102 % of control | [12] 100 % of control | [6] 120 % of control and 93 % of control | dose: 76.5 mg/kg/injection, schedule: Q01DX009 (ip), vehicle: Klucel (hydroxypropylcellulose) (HPC) 94 % of control | [13] 107 % of control | dose: 100.0 mg/kg/injection, schedule: Q01DX009 (ip), vehicle: Klucel (hydroxypropylcellulose) (HPC) 99 % of control and 115 % of control and 95 % of control | dose: 153.0 mg/kg/injection, schedule: Q01DX009 (ip), vehicle: Klucel (hydroxypropylcellulose) (HPC) 95 % of control | [14] 107 % of control | dose: 200.0 mg/kg/injection, schedule: Q01DX009 (ip), vehicle: Klucel (hydroxypropylcellulose) (HPC) 108 % of control and 93 % of control | dose: 306.0 mg/kg/injection, schedule: Q01DX009 (ip), vehicle: Klucel (hydroxypropylcellulose) (HPC) 110 % of control | dose: 400.0 mg/kg/injection, schedule: Q01DX005 (ip), vehicle: saline with Tween-80 109 % of control | dose: 400.0 mg/kg/injection, schedule: Q01DX009 (ip), vehicle: Klucel (hydroxypropylcellulose) (HPC) 102 % of control and 94 % of control

CC(=O)N[C@H]1CCC2[C@@H]3CCC4=CC(=O)NCC[C@]4(C)C3CC[C@@]21C (some centres not stated)
inactive: dose: 60.0 mg/kg/injection, schedule: Q01DX005 (ip), vehicle: saline with Tween-80 95 % of control | dose: 120.0 mg/kg/injection, schedule: Q01DX005 (ip), vehicle: saline with Tween-80 92 % of control | dose: 240.0 mg/kg/injection, schedule: Q01DX005 (ip), vehicle: saline with Tween-80 94 % of control

O=[N+]([O-])c1ccc(-c2cn3nc(-c4ccccc4)c(-c4ccccc4)nc3n2)cc1
inactive: [16] 110 % of control | [17] 98 % of control | [18] 108 % of control and 93 % of control

CCCCCCC(=O)/C=C/c1ccc(OC(=O)c2ccc(Br)cc2)cc1
inactive: dose: 12.5 mg/kg/injection, schedule: Q01DX009 (ip), vehicle: saline with Tween-80 104 % of control | dose: 25.0 mg/kg/injection, schedule: Q01DX009 (ip), vehicle: saline with Tween-80 96 % of control | [1] 96 % of control

COC(=O)Nc1nc2ccc(C(=O)OCC(C)C)cc2[nH]1
inactive: [10] 98 % of control | [11] 90 % of control

COc1ccc(/C=C/c2ccc3ccccc3n2)c(OC)c1
inactive: [2] 100 % of control | [3] 100 % of control | [15] 100 % of control

CSc1cnnc2ccccc12
inactive: [4] 100 % of control and 95 % of control | [5] 100 % of control and 109 % of control and 88 % of control | [6] 100 % of control and 87 % of control

CC1CC(c2ccccc2)C(c2ccccc2Cl)C(=O)O1 (configuration not stated)
inactive: dose: 100.0 mg/kg/injection, schedule: Q04DX002 (ip), vehicle: Klucel (hydroxypropylcellulose) (HPC) 101 % of control | dose: 200.0 mg/kg/injection, schedule: Q04DX002 (ip), vehicle: Klucel (hydroxypropylcellulose) (HPC) 96 % of control | dose: 400.0 mg/kg/injection, schedule: Q04DX002 (ip), vehicle: Klucel (hydroxypropylcellulose) (HPC) 96 % of control

C/C=C(\C)C(=O)N/N=C/c1cccnc1
inactive: [18] 103 % of control | [19] 103 % of control | [20] 103 % of control

CCCCOC(=S)Nc1ccccc1
inactive: dose: 50.0 mg/kg/injection, schedule: Q01DX009 (ip), vehicle: saline + Tween-80 + alcohol 99 % of control | [1] 104 % of control | dose: 100.0 mg/kg/injection, schedule: Q01DX009 (ip), vehicle: saline + Tween-80 + alcohol 108 % of control | [2] 100 % of control | dose: 200.0 mg/kg/injection, schedule: Q01DX009 (ip), vehicle: saline + Tween-80 + alcohol 98 % of control | [3] 98 % of control | dose: 400.0 mg/kg/injection, schedule: Q01DX009 (ip), vehicle: saline + Tween-80 + alcohol 97 % of control | [15] 110 % of control

NS(=O)(=O)c1cccnc1Nc1ccc([N+](=O)[O-])cc1
inactive: [7] 105 % of control | [8] 101 % of control | [9] 93 % of control
